Data taken from ChEMBL document CHEMBL5344411, “Phenotypic screening-based drug discovery of furan-2-carboxylic acid derivatives for the amelioration of type 2 diabetes mellitus (T2DM)” (Eur J Med Chem, 2023).
The source made the active and inactive calls. The rule behind the calls is not given here.

Key:
Hepatocyte [1] = assay: Inhibition of gluconeogenesis in Sprague-Dawley rat hepatocytes at 10 uM incubated for 1.5 hrs followed by sodium pyruvate and sodium lactate addition and measured after 4 hrs by colorimetric analysis relative to control; assay type: functional; conditions: time 5.5 hrs
Hepatocyte [2] = assay: Inhibition of gluconeogenesis in Sprague-Dawley rat hepatocytes at 3 uM incubated for 1.5 hrs followed by sodium pyruvate and sodium lactate addition and measured after 4 hrs by colorimetric analysis relative to control; assay type: functional; conditions: time 5.5 hrs
Mus musculus [3] = assay: Inhibition of gluconeogenesis in CD-1 mouse assessed as decrease in blood glucose level at 50 mg/kg administered via gavage at 2 hrs prior to pyruvate sodium challenge and measured for 2 hrs by pyruvate tolerance test; assay type: functional, organism-based; conditions: time 4.0 hrs
Hepatocyte [4] = assay: Inhibition of gluconeogenesis in Sprague-Dawley rat hepatocytes at 0.3 uM incubated for 1.5 hrs followed by sodium pyruvate and sodium lactate addition and measured after 4 hrs by colorimetric analysis relative to control; assay type: functional; conditions: time 5.5 hrs
Hepatocyte [5] = assay: Inhibition of gluconeogenesis in Sprague-Dawley rat hepatocytes at 1 uM incubated for 1.5 hrs followed by sodium pyruvate and sodium lactate addition and measured after 4 hrs by colorimetric analysis relative to control; assay type: functional; conditions: time 5.5 hrs
Mus musculus [6] = assay: Inhibition of gluconeogenesis in CD-1 mouse assessed as decrease in blood glucose level at 50 mg/kg administered via gavage at 1 hr prior to pyruvate sodium challenge and measured for 2 hrs by pyruvate tolerance test; assay type: functional, organism-based; conditions: time 3.0 hrs

## C=CCc1ccc(OCc2ccc(C(=O)O)o2)cc1
Hepatocyte [1]
  fold change (FC): 0.6

## COc1cc(CC(=O)N(C)C)ccc1OCc1ccc(C(=O)O)o1
Hepatocyte [1]
  fold change (FC): 1.15

## CCCc1ccc(OCc2ccc(C(=O)O)o2)c(OC)c1
Hepatocyte [2]
  fold change (FC): 0.75
Mus musculus [3]
  inhibition: Active
Hepatocyte [1]
  fold change (FC): 0.65
Hepatocyte [4]
  fold change (FC): 1.19
Hepatocyte [5]
  fold change (FC): 1.05

## Cc1cc(Br)ccc1OCc1ccc(C(=O)O)o1
Hepatocyte [2]
  fold change (FC): 0.37
Hepatocyte [1]
  fold change (FC): 0.33
Hepatocyte [4]
  fold change (FC): 0.93
Hepatocyte [5]
  fold change (FC): 1.01
Mus musculus [6]
  inhibition: Active

## COc1ccccc1OCc1ccc(C(=O)O)o1
Hepatocyte [1]
  fold change (FC): 0.99

## C=CCc1ccc(OCc2ccc(C(=O)N3CCOCC3)o2)c(OC)c1
Hepatocyte [1]
  fold change (FC): 0.97

## COc1cc(/C=C/C(=O)N(C)C)ccc1OCc1ccc(C(=O)O)o1
Hepatocyte [1]
  fold change (FC): 0.77

## C=CCc1ccc(OCc2ccc(C(=O)N3CCN(C)CC3)o2)c(OC)c1
Hepatocyte [1]
  fold change (FC): 0.98

## CCCc1ccc(OCc2ccc(C(=O)O)o2)c(OCCOC)c1
Hepatocyte [1]
  fold change (FC): 0.72

## CCCc1cccc(OC)c1OCc1ccc(C(=O)O)o1
Hepatocyte [1]
  fold change (FC): 0.67

## CNC(=O)CCc1ccc(OCc2ccc(C(=O)O)o2)c(OC)c1
Hepatocyte [1]
  fold change (FC): 0.98

## CNC(=O)Cc1ccc(OCc2ccc(C(=O)O)o2)c(OC)c1
Hepatocyte [1]
  fold change (FC): 1.08

## C=CCc1ccc(OC)c(OCc2ccc(C(=O)O)o2)c1
Hepatocyte [1]
  fold change (FC): 1

## CCC(=O)c1ccc(OCc2ccc(C(=O)O)o2)c(OC)c1
Hepatocyte [1]
  fold change (FC): 0.79

## CCCc1ccc(OCc2ccc(C(=O)O)o2)c(NC(C)=O)c1
Hepatocyte [1]
  fold change (FC): 0.95

## CCCc1ccc(OCc2ccc(C(=O)O)o2)c(OCC)c1
Hepatocyte [1]
  fold change (FC): 0.77

## C=CCc1ccc(OCc2ccc(C(=O)NCCO)o2)c(OC)c1
Hepatocyte [1]
  fold change (FC): 0.82

## CCCc1ccc(OCc2ccc(C(=O)O)o2)c(NC)c1
Hepatocyte [2]
  fold change (FC): 0.56
Hepatocyte [1]
  fold change (FC): 0.41
Hepatocyte [4]
  fold change (FC): 1.02
Hepatocyte [5]
  fold change (FC): 0.81
Mus musculus [6]
  inhibition: Active
